Assay results reported in article PMC10008561 (Nature Communications, 2023).
Values joined by “and” are separate entries in the source; they are usually repeats but may differ in a detail not shown here. Identical values can stand only once. Like-named read-outs stand apart in the source and are kept apart here.

Experiments:
KOR Q115N = KOR Q115N (Homo sapiens, UniProt P41145, Q115N); assay: cell-based; set-up: TEV cleavage site (C); tTA transcription factor (C); expressed in transfected cells; host or cells: HTLA cells; details: read-out: Tango response (Figure S4C), KOR Q115N, Log [Drug], replicate values
human KOR (Gi2) [1] = molecular target: T1, human KOR (Gi2) (Homo sapiens, UniProt P41145, R257A); assay: cell-based
T1 construct: expressed in transfected cells; host or cells: HEK293T

human KOR (Gi2) [2] = molecular target: T2, human KOR (Gi2) (Homo sapiens, UniProt P41145); assay: cell-based
T2 construct: expressed in transfected cells; host or cells: HEK293T

human KOR (Gi2) [3] = molecular target: T3, human KOR (Gi2) (Homo sapiens, UniProt P41145, N141A); assay: cell-based
T3 construct: expressed in transfected cells; host or cells: HEK293T

KOR = format: cell-based, human
human KOR [4] = molecular target: T4, human KOR (Homo sapiens, UniProt P41145, V134A); assay: cell-based; details: HEK-293T
T4 construct: expressed in transfected cells; host or cells: HEK 293T (ATCC, CRL-3216)

human KOR [5] = molecular target: T5, human KOR (Homo sapiens, UniProt P41145, S211A); assay: cell-based; details: HEK-293T
T5 construct: expressed in transfected cells; host or cells: HEK 293T (ATCC, CRL-3216)

human KOR [6] = molecular target: T6, human KOR (Homo sapiens, UniProt P41145, K227A); assay: cell-based; details: HEK-293T
T6 construct: expressed in transfected cells; host or cells: HEK 293T (ATCC, CRL-3216)

human KOR (β-arrestin 1) [7] = molecular target: T7, human KOR (β-arrestin 1) (Homo sapiens, UniProt P41145, G319L); assay: cell-based; details: HEK-293T
T7 construct: expressed in transfected cells; host or cells: HEK293T

human KOR (β-arrestin 1) [8] = molecular target: T8, human KOR (β-arrestin 1) (Homo sapiens, UniProt P41145, D105A); assay: cell-based; details: HEK-293T
T8 construct: expressed in transfected cells; host or cells: HEK293T

human KOR (β-arrestin 1) [9] = molecular target: T9, human KOR (β-arrestin 1) (Homo sapiens, UniProt P41145); assay: cell-based
T9 construct: expressed in transfected cells; host or cells: HEK293T

human KOR (β-arrestin 1) [10] = molecular target: T10, human KOR (β-arrestin 1) (Homo sapiens, UniProt P41145, Y320L); assay: cell-based; details: HEK-293T
T10 construct: expressed in transfected cells; host or cells: HEK293T

human KOR (β-arrestin 1) [11] = molecular target: T11, human KOR (β-arrestin 1) (Homo sapiens, UniProt P41145, D155A); assay: cell-based; details: HEK-293T
T11 construct: expressed in transfected cells; host or cells: HEK293T

human KOR (β-arrestin 1) [12] = molecular target: T12, human KOR (β-arrestin 1) (Homo sapiens, UniProt P41145, N141A); assay: cell-based; details: HEK-293T
T12 construct: expressed in transfected cells; host or cells: HEK293T

human KOR (β-arrestin 1) [13] = molecular target: T13, human KOR (β-arrestin 1) (Homo sapiens, UniProt P41145, R274A); assay: cell-based; details: HEK-293T
T13 construct: expressed in transfected cells; host or cells: HEK293T

human KOR (β-arrestin 1) [14] = molecular target: T14, human KOR (β-arrestin 1) (Homo sapiens, UniProt P41145, Q115N); assay: cell-based; details: HEK-293T
T14 construct: expressed in transfected cells; host or cells: HEK293T

human KOR (β-arrestin 1) [15] = molecular target: T15, human KOR (β-arrestin 1) (Homo sapiens, UniProt P41145, R257A); assay: cell-based; details: HEK-293T
T15 construct: expressed in transfected cells; host or cells: HEK293T

human KOR (β-arrestin 1) [16] = molecular target: T16, human KOR (β-arrestin 1) (Homo sapiens, UniProt P41145, F114L); assay: cell-based; details: HEK-293T
T16 construct: expressed in transfected cells; host or cells: HEK293T

human KOR (β-arrestin 1) [17] = molecular target: T17, human KOR (β-arrestin 1) (Homo sapiens, UniProt P41145, Y139L); assay: cell-based; details: HEK-293T
T17 construct: expressed in transfected cells; host or cells: HEK293T

human KOR (β-arrestin 1) [18] = molecular target: T18, human KOR (β-arrestin 1) (Homo sapiens, UniProt P41145, K200A); assay: cell-based; details: HEK-293T
T18 construct: expressed in transfected cells; host or cells: HEK293T

human KOR (β-arrestin 1) [19] = molecular target: T19, human KOR (β-arrestin 1) (Homo sapiens, UniProt P41145, N326A); assay: cell-based; details: HEK-293T
T19 construct: expressed in transfected cells; host or cells: HEK293T

human KOR (β-arrestin 1) [20] = molecular target: T20, human KOR (β-arrestin 1) (Homo sapiens, UniProt P41145, K227A); assay: cell-based; details: HEK-293T
T20 construct: expressed in transfected cells; host or cells: HEK293T

human KOR (β-arrestin 1) [21] = molecular target: T21, human KOR (β-arrestin 1) (Homo sapiens, UniProt P41145, L253A); assay: cell-based; details: HEK-293T
T21 construct: expressed in transfected cells; host or cells: HEK293T

human KOR (β-arrestin 1) [22] = molecular target: T22, human KOR (β-arrestin 1) (Homo sapiens, UniProt P41145, E297A); assay: cell-based; details: HEK-293T
T22 construct: expressed in transfected cells; host or cells: HEK293T

human KOR (β-arrestin 1) [23] = molecular target: T23, human KOR (β-arrestin 1) (Homo sapiens, UniProt P41145, R170A); assay: cell-based; details: HEK-293T
T23 construct: expressed in transfected cells; host or cells: HEK293T

human KOR (β-arrestin 1) [24] = molecular target: T24, human KOR (β-arrestin 1) (Homo sapiens, UniProt P41145, T94V); assay: cell-based; details: HEK-293T
T24 construct: expressed in transfected cells; host or cells: HEK293T

human KOR (β-arrestin 1) [25] = molecular target: T25, human KOR (β-arrestin 1) (Homo sapiens, UniProt P41145, D334A); assay: cell-based; details: HEK-293T
T25 construct: expressed in transfected cells; host or cells: HEK293T

human KOR (β-arrestin 1) [26] = molecular target: T26, human KOR (β-arrestin 1) (Homo sapiens, UniProt P41145, R271A); assay: cell-based; details: HEK-293T
T26 construct: expressed in transfected cells; host or cells: HEK293T

human KOR (β-arrestin 1) [27] = molecular target: T27, human KOR (β-arrestin 1) (Homo sapiens, UniProt P41145, F283A); assay: cell-based; details: HEK-293T
T27 construct: expressed in transfected cells; host or cells: HEK293T

human KOR (β-arrestin 1) [28] = molecular target: T28, human KOR (β-arrestin 1) (Homo sapiens, UniProt P41145, N322A); assay: cell-based; details: HEK-293T
T28 construct: expressed in transfected cells; host or cells: HEK293T

[29] = HEK-293T, read-out: βArrestin1 (Figure 5A concentration-response, replicate values)

Sequence of KOR Q115N (P41145 whole entry Q115N): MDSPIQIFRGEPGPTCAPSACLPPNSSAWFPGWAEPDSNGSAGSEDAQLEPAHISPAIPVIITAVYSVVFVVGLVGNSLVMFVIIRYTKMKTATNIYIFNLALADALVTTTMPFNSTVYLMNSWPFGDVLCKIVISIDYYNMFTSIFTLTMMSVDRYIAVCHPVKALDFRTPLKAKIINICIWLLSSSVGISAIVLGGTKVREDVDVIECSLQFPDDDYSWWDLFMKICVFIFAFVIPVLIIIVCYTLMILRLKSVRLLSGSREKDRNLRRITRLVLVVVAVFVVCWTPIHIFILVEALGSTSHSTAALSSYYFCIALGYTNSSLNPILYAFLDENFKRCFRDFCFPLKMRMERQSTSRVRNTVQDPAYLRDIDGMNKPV
Sequence of KOR Q115N (P32121 whole entry partner): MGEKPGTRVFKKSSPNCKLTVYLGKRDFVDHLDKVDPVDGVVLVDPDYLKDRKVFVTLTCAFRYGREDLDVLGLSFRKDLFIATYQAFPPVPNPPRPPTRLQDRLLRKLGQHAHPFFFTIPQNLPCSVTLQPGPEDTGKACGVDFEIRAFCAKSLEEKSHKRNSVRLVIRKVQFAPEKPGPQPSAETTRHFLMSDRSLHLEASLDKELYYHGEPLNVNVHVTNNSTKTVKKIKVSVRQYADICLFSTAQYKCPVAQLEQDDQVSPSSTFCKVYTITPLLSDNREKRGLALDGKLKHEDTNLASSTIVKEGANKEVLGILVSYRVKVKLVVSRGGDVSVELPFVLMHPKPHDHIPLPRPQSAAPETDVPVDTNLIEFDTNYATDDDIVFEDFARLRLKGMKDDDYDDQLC
T9 sequence (P41145 whole entry): as the sequence (P41145 whole entry Q115N) above, with N115Q counted along it
T2 sequence (P41145 whole entry): as the sequence (P41145 whole entry Q115N) above, with N115Q counted along it
T5 sequence (P41145 whole entry S211A): as the sequence (P41145 whole entry Q115N) above, with N115Q, S211A counted along it
T4 sequence (P41145 whole entry V134A): as the sequence (P41145 whole entry Q115N) above, with N115Q, V134A counted along it
T3 sequence (P41145 whole entry N141A): as the sequence (P41145 whole entry Q115N) above, with N115Q, N141A counted along it
T1 sequence (P41145 whole entry R257A): as the sequence (P41145 whole entry Q115N) above, with N115Q, R257A counted along it
T6 sequence (P41145 whole entry K227A): as the sequence (P41145 whole entry Q115N) above, with N115Q, K227A counted along it
T20 sequence (P41145 whole entry K227A): as the sequence (P41145 whole entry Q115N) above, with N115Q, K227A counted along it
T16 sequence (P41145 whole entry F114L): as the sequence (P41145 whole entry Q115N) above, with F114L, N115Q counted along it
T11 sequence (P41145 whole entry D155A): as the sequence (P41145 whole entry Q115N) above, with N115Q, D155A counted along it
T22 sequence (P41145 whole entry E297A): as the sequence (P41145 whole entry Q115N) above, with N115Q, E297A counted along it
T7 sequence (P41145 whole entry G319L): as the sequence (P41145 whole entry Q115N) above, with N115Q, G319L counted along it
T17 sequence (P41145 whole entry Y139L): as the sequence (P41145 whole entry Q115N) above, with N115Q, Y139L counted along it
T14 sequence (P41145 whole entry Q115N): as the sequence (P41145 whole entry Q115N) above
T13 sequence (P41145 whole entry R274A): as the sequence (P41145 whole entry Q115N) above, with N115Q, R274A counted along it
T23 sequence (P41145 whole entry R170A): as the sequence (P41145 whole entry Q115N) above, with N115Q, R170A counted along it
T10 sequence (P41145 whole entry Y320L): as the sequence (P41145 whole entry Q115N) above, with N115Q, Y320L counted along it
T18 sequence (P41145 whole entry K200A): as the sequence (P41145 whole entry Q115N) above, with N115Q, K200A counted along it
T12 sequence (P41145 whole entry N141A): as the sequence (P41145 whole entry Q115N) above, with N115Q, N141A counted along it
T15 sequence (P41145 whole entry R257A): as the sequence (P41145 whole entry Q115N) above, with N115Q, R257A counted along it
T21 sequence (P41145 whole entry L253A): as the sequence (P41145 whole entry Q115N) above, with N115Q, L253A counted along it
T28 sequence (P41145 whole entry N322A): as the sequence (P41145 whole entry Q115N) above, with N115Q, N322A counted along it
T8 sequence (P41145 whole entry D105A): as the sequence (P41145 whole entry Q115N) above, with D105A, N115Q counted along it
T24 sequence (P41145 whole entry T94V): as the sequence (P41145 whole entry Q115N) above, with T94V, N115Q counted along it
T27 sequence (P41145 whole entry F283A): as the sequence (P41145 whole entry Q115N) above, with N115Q, F283A counted along it
T25 sequence (P41145 whole entry D334A): as the sequence (P41145 whole entry Q115N) above, with N115Q, D334A counted along it
T19 sequence (P41145 whole entry N326A): as the sequence (P41145 whole entry Q115N) above, with N115Q, N326A counted along it
T26 sequence (P41145 whole entry R271A): as the sequence (P41145 whole entry Q115N) above, with N115Q, R271A counted along it

CN(C(=O)/C=C/c1ccoc1)[C@@H]1CC[C@@]2(O)[C@H]3Cc4ccc(O)c5c4[C@@]2(CCN3CC2CC2)[C@H]1O5 [Nalfurafine, nalfurafine]
activation at 10 µM (KOR Q115N; M -5): 106%
activation at […] (KOR Q115N; M -6.5): 92.3%
activation at 0.1 µM (KOR Q115N; M -7): 92.6%
activation at […] (KOR Q115N; M -7.5): 76.8%
activation at 0.01 µM (KOR Q115N; M -8): 80.2%
activation at […] (KOR Q115N; M -8.5): 39%
FC vs wild type (human KOR (Gi2) [1]): 100
Emax (human KOR (Gi2) [1]; HEK-293T): 104%
Emax% (human KOR (Gi2) [2]): 101%
FC vs wild type (human KOR (Gi2) [2]): 1
Emax (human KOR (Gi2) [2]; HEK-293T): 101%
FC vs wild type (human KOR (Gi2) [3]): 7
Emax (human KOR (Gi2) [3]; HEK-293T): 103%
ΔΔLog τ/KA (95% confidence interval) (KOR): 0.78 (0.65 to 0.91)
Emax (human KOR [4]): 93 ± 3%
activation at 3.162 pM (human KOR [4]; read-out: cAMP response): 23.5%
activation at 10 pM (human KOR [4]; read-out: cAMP response): 48.2%
activation at 31.62 pM (human KOR [4]; read-out: cAMP response): 53.1%
activation at 0.0001 µM (human KOR [4]; read-out: cAMP response): 62.8%
activation at 0.001 µM (human KOR [4]; read-out: cAMP response): 82.5%
activation at 0.01 µM (human KOR [4]; read-out: cAMP response): 96.2%
activation at 0.1 µM (human KOR [4]; read-out: cAMP response): 104%
activation at 1 µM (human KOR [4]; read-out: cAMP response): 96.6%
activation at […] (human KOR [4]; read-out: cAMP response): 58.2% and 90% and 99.4% and 95.7%
Emax (human KOR [5]): 107 ± 2%
activation at 1 pM (human KOR [5]; read-out: cAMP response): 16.4%
activation at 3.162 pM (human KOR [5]; read-out: cAMP response): 71%
activation at 10 pM (human KOR [5]; read-out: cAMP response): 91.3%
activation at 31.62 pM (human KOR [5]; read-out: cAMP response): 99.8%
activation at 0.0001 µM (human KOR [5]; read-out: cAMP response): 106%
activation at 0.001 µM (human KOR [5]; read-out: cAMP response): 107%
activation at 0.01 µM (human KOR [5]; read-out: cAMP response): 108%
activation at 0.1 µM (human KOR [5]; read-out: cAMP response): 107%
activation at 1 µM (human KOR [5]; read-out: cAMP response): 103%
activation at […] (human KOR [5]; read-out: cAMP response): 107% (2×) and 105% and 104%
Emax (human KOR [6]): 100 ± 3%
Emax (human KOR (β-arrestin 1) [7]): 60.4%
Emax (human KOR (β-arrestin 1) [8]): 91.6%
Emax% (human KOR (β-arrestin 1) [9]): 52.03% and 50%
Emax (human KOR (β-arrestin 1) [9]; HEK-293T): 52.1%
activation at 0.01 µM (human KOR (β-arrestin 1) [9]; [29]): 47.1%
activation at 0.1 µM (human KOR (β-arrestin 1) [9]; [29]): 49.9%
activation at 1 µM (human KOR (β-arrestin 1) [9]; [29]): 52.7%
Emax (human KOR (β-arrestin 1) [10]): 83.6%
Emax (human KOR (β-arrestin 1) [11]): 86.5%
Emax (human KOR (β-arrestin 1) [12]): 91.3%
Emax (human KOR (β-arrestin 1) [13]): 78.7%
Emax (human KOR (β-arrestin 1) [14]): 62.2%
Emax (human KOR (β-arrestin 1) [15]): 103%
Emax (human KOR (β-arrestin 1) [16]): 33.9%
Emax (human KOR (β-arrestin 1) [17]): 92.8%
Emax (human KOR (β-arrestin 1) [18]): 81.3%
Emax (human KOR (β-arrestin 1) [19]): 65.2%
Emax (human KOR (β-arrestin 1) [20]): 77.5%
Emax (human KOR (β-arrestin 1) [21]): 94.5%
Emax (human KOR (β-arrestin 1) [22]): 101%
Emax (human KOR (β-arrestin 1) [23]): 81.8%
Emax (human KOR (β-arrestin 1) [24]): 73.2%
Emax (human KOR (β-arrestin 1) [25]): 71.1%
Emax (human KOR (β-arrestin 1) [26]): 101%
Emax (human KOR (β-arrestin 1) [27]): 100%
Emax (human KOR (β-arrestin 1) [28]): 101%
